ChEMBL document CHEMBL5724914, “Linking interpersonal differences in gut microbiota composition and drug biotransformation activity” (2024)

Key:
[1] = human gut metagenome, 24 h, 2 µM
[2] = (§1) The drug is tested on Z-019 corresponding to rat gut metagenome with ENA study accession number: PRJEB37062 and ENA sample accession number: ERS12561818 for biotransformation under anaerobic condition. The drug concentrations were measured over 9 timepoints collected between 0 and 24 hours of incubation by liquid-chromatography-coupled mass spectrometry (LC–MS); settings: 2 µM
[3] = human gut metagenome, 24 h, 2 µM; remark: listed apart in the source
[4] = human gut metagenome, 24 h, 2 µM; remark: listed apart in the source
[5] = as §1, with “on Z-020” for “on Z-019”, “to rabbit” for “to rat”, “number: ERS12561819” for “number: ERS12561818”; settings: 2 µM
[6] = human gut metagenome, 24 h, 2 µM; remark: listed apart in the source
[7] = as §1, with “on Z-013” for “on Z-019”, “to rabbit” for “to rat”, “number: ERS12561813” for “number: ERS12561818”; settings: 2 µM
[8] = human gut metagenome, 24 h, 2 µM; remark: listed apart in the source
[9] = human gut metagenome, 24 h, 2 µM; remark: listed apart in the source
[10] = as §1, with “on WLS-220” for “on Z-019”, “to human” for “to rat”, “number: ERS12561769” for “number: ERS12561818”; settings: 2 µM
[11] = human gut metagenome, 24 h, 2 µM; remark: listed apart in the source
[12] = as §1, with “on WLS-027” for “on Z-019”, “to human” for “to rat”, “number: ERS12561744” for “number: ERS12561818”; settings: 2 µM
[13] = as §1, with “on WLS-090” for “on Z-019”, “to human” for “to rat”, “number: ERS12561753” for “number: ERS12561818”; settings: 2 µM
[14] = as §1, with “on Z-016” for “on Z-019”, “to mouse” for “to rat”, “number: ERS12561815” for “number: ERS12561818”; settings: 2 µM
[15] = as §1, with “on WLS-370” for “on Z-019”, “to human” for “to rat”, “number: ERS12561793” for “number: ERS12561818”; settings: 2 µM
[16] = human gut metagenome, 24 h, 2 µM; remark: listed apart in the source
[17] = human gut metagenome, 24 h, 2 µM; remark: listed apart in the source
[18] = human gut metagenome, 24 h, 2 µM; remark: listed apart in the source
[19] = as §1, with “on Z-018” for “on Z-019”, “to pig” for “to rat”, “number: ERS12561817” for “number: ERS12561818”; settings: 2 µM
[20] = as §1, with “on Z-003” for “on Z-019”, “to pig” for “to rat”, “number: ERS12561803” for “number: ERS12561818”; settings: 2 µM
Also: call rule not given here.

Structure (SMILES): CN1CCC(=C2c3ccccc3CC(=O)c3sccc32)CC1.O=C(O)/C=C/C(=O)O [KETOTIFEN FUMARATE]
- Bacterial Biotransformation [1]: Compound metabolized
- Bacterial Biotransformation [2]: Compound NOT metabolized
- Bacterial Biotransformation [3]: Compound metabolized
- Bacterial Biotransformation [4]: Compound NOT metabolized
- Bacterial Biotransformation [5]: Compound NOT metabolized
- Bacterial Biotransformation [6]: Compound NOT metabolized
- Bacterial Biotransformation [7]: Compound NOT metabolized
- Bacterial Biotransformation [8]: Compound NOT metabolized
- Bacterial Biotransformation [9]: Compound NOT metabolized
- Bacterial Biotransformation [10]: Compound metabolized
- Bacterial Biotransformation [11]: Compound NOT metabolized
- Bacterial Biotransformation [12]: Compound NOT metabolized
- Bacterial Biotransformation [13]: Compound metabolized
- Bacterial Biotransformation [14]: Compound NOT metabolized
- Bacterial Biotransformation [15]: Compound metabolized
- Bacterial Biotransformation [16]: Compound metabolized
- Bacterial Biotransformation [17]: Compound metabolized
- Bacterial Biotransformation [18]: Compound NOT metabolized
- Bacterial Biotransformation [19]: Compound NOT metabolized
- Bacterial Biotransformation [20]: Compound NOT metabolized

Structure (SMILES): CC[C@H](C)C(=O)O[C@H]1CCC=C2C=C[C@H](C)[C@H](CC[C@@H]3C[C@@H](O)CC(=O)O3)[C@H]21 [MEVASTATIN]
- Bacterial Biotransformation [1]: Compound metabolized
- Bacterial Biotransformation [2]: Compound NOT metabolized
- Bacterial Biotransformation [3]: Compound metabolized
- Bacterial Biotransformation [4]: Compound NOT metabolized
- Bacterial Biotransformation [5]: Compound NOT metabolized
- Bacterial Biotransformation [6]: Compound NOT metabolized
- Bacterial Biotransformation [7]: Compound NOT metabolized
- Bacterial Biotransformation [8]: Compound NOT metabolized
- Bacterial Biotransformation [9]: Compound metabolized
- Bacterial Biotransformation [10]: Compound metabolized
- Bacterial Biotransformation [11]: Compound metabolized
- Bacterial Biotransformation [12]: Compound metabolized
- Bacterial Biotransformation [13]: Compound metabolized
- Bacterial Biotransformation [14]: Compound NOT metabolized
- Bacterial Biotransformation [15]: Compound NOT metabolized
- Bacterial Biotransformation [16]: Compound metabolized
- Bacterial Biotransformation [17]: Compound metabolized
- Bacterial Biotransformation [18]: Compound NOT metabolized
- Bacterial Biotransformation [19]: Compound metabolized
- Bacterial Biotransformation [20]: Compound NOT metabolized

Structure (SMILES): COc1ccc2cc([C@H](C)C(=O)O)ccc2c1 [NAPROXEN]
- Bacterial Biotransformation [1]: Compound metabolized
- Bacterial Biotransformation [2]: Compound NOT metabolized
- Bacterial Biotransformation [3]: Compound metabolized
- Bacterial Biotransformation [4]: Compound metabolized
- Bacterial Biotransformation [5]: Compound NOT metabolized
- Bacterial Biotransformation [6]: Compound NOT metabolized
- Bacterial Biotransformation [7]: Compound NOT metabolized
- Bacterial Biotransformation [8]: Compound metabolized
- Bacterial Biotransformation [9]: Compound metabolized
- Bacterial Biotransformation [10]: Compound metabolized
- Bacterial Biotransformation [11]: Compound metabolized
- Bacterial Biotransformation [12]: Compound metabolized
- Bacterial Biotransformation [13]: Compound metabolized
- Bacterial Biotransformation [14]: Compound NOT metabolized
- Bacterial Biotransformation [15]: Compound NOT metabolized
- Bacterial Biotransformation [16]: Compound metabolized
- Bacterial Biotransformation [17]: Compound metabolized
- Bacterial Biotransformation [18]: Compound metabolized
- Bacterial Biotransformation [19]: Compound NOT metabolized
- Bacterial Biotransformation [20]: Compound NOT metabolized

Structure (SMILES): C#C[C@]1(OC(C)=O)CC[C@H]2[C@@H]3CCC4=C/C(=N/O)CC[C@@H]4[C@H]3CC[C@@]21CC [NORGESTIMATE]
- Bacterial Biotransformation [1]: Compound metabolized
- Bacterial Biotransformation [2]: Compound NOT metabolized
- Bacterial Biotransformation [3]: Compound NOT metabolized
- Bacterial Biotransformation [4]: Compound metabolized
- Bacterial Biotransformation [5]: Compound NOT metabolized
- Bacterial Biotransformation [6]: Compound NOT metabolized
- Bacterial Biotransformation [7]: Compound NOT metabolized
- Bacterial Biotransformation [8]: Compound NOT metabolized
- Bacterial Biotransformation [9]: Compound NOT metabolized
- Bacterial Biotransformation [10]: Compound metabolized
- Bacterial Biotransformation [11]: Compound metabolized
- Bacterial Biotransformation [12]: Compound metabolized
- Bacterial Biotransformation [13]: Compound metabolized
- Bacterial Biotransformation [14]: Compound NOT metabolized
- Bacterial Biotransformation [15]: Compound NOT metabolized
- Bacterial Biotransformation [16]: Compound metabolized
- Bacterial Biotransformation [17]: Compound metabolized
- Bacterial Biotransformation [18]: Compound metabolized
- Bacterial Biotransformation [19]: Compound NOT metabolized
- Bacterial Biotransformation [20]: Compound NOT metabolized

Structure (SMILES): COc1ccnc(C[S+]([O-])c2nc3ccc(OC(F)F)cc3[nH]2)c1OC (stereo not given) [PANTOPRAZOLE]
- Bacterial Biotransformation [1]: Compound metabolized
- Bacterial Biotransformation [2]: Compound metabolized
- Bacterial Biotransformation [3]: Compound metabolized
- Bacterial Biotransformation [4]: Compound metabolized
- Bacterial Biotransformation [5]: Compound metabolized
- Bacterial Biotransformation [6]: Compound metabolized
- Bacterial Biotransformation [7]: Compound metabolized
- Bacterial Biotransformation [8]: Compound NOT metabolized
- Bacterial Biotransformation [9]: Compound metabolized
- Bacterial Biotransformation [10]: Compound metabolized
- Bacterial Biotransformation [11]: Compound metabolized
- Bacterial Biotransformation [12]: Compound metabolized
- Bacterial Biotransformation [13]: Compound metabolized
- Bacterial Biotransformation [14]: Compound metabolized
- Bacterial Biotransformation [15]: Compound metabolized
- Bacterial Biotransformation [16]: Compound metabolized
- Bacterial Biotransformation [17]: Compound metabolized
- Bacterial Biotransformation [18]: Compound metabolized
- Bacterial Biotransformation [19]: Compound metabolized
- Bacterial Biotransformation [20]: Compound NOT metabolized

Structure (SMILES): O=C1N=C([O-])NC1(c1ccccc1)c1ccccc1.[Na+] [PHENYTOIN SODIUM]
- Bacterial Biotransformation [1]: Compound metabolized
- Bacterial Biotransformation [2]: Compound NOT metabolized
- Bacterial Biotransformation [3]: Compound metabolized
- Bacterial Biotransformation [4]: Compound metabolized
- Bacterial Biotransformation [5]: Compound NOT metabolized
- Bacterial Biotransformation [6]: Compound NOT metabolized
- Bacterial Biotransformation [7]: Compound NOT metabolized
- Bacterial Biotransformation [8]: Compound NOT metabolized
- Bacterial Biotransformation [9]: Compound NOT metabolized
- Bacterial Biotransformation [10]: Compound metabolized
- Bacterial Biotransformation [11]: Compound metabolized
- Bacterial Biotransformation [12]: Compound metabolized
- Bacterial Biotransformation [13]: Compound metabolized
- Bacterial Biotransformation [14]: Compound NOT metabolized
- Bacterial Biotransformation [15]: Compound metabolized
- Bacterial Biotransformation [16]: Compound metabolized
- Bacterial Biotransformation [17]: Compound metabolized
- Bacterial Biotransformation [18]: Compound metabolized
- Bacterial Biotransformation [19]: Compound NOT metabolized
- Bacterial Biotransformation [20]: Compound NOT metabolized

Structure (SMILES): C[C@]12C=CC(=O)C=C1CC[C@@H]1[C@@H]2C(=O)C[C@@]2(C)[C@H]1CC[C@]2(O)C(=O)CO [PREDNISONE]
- Bacterial Biotransformation [1]: Compound metabolized
- Bacterial Biotransformation [2]: Compound NOT metabolized
- Bacterial Biotransformation [3]: Compound metabolized
- Bacterial Biotransformation [4]: Compound NOT metabolized
- Bacterial Biotransformation [5]: Compound metabolized
- Bacterial Biotransformation [6]: Compound metabolized
- Bacterial Biotransformation [7]: Compound NOT metabolized
- Bacterial Biotransformation [8]: Compound NOT metabolized
- Bacterial Biotransformation [9]: Compound metabolized
- Bacterial Biotransformation [10]: Compound metabolized
- Bacterial Biotransformation [11]: Compound metabolized
- Bacterial Biotransformation [12]: Compound metabolized
- Bacterial Biotransformation [13]: Compound metabolized
- Bacterial Biotransformation [14]: Compound metabolized
- Bacterial Biotransformation [15]: Compound metabolized
- Bacterial Biotransformation [16]: Compound metabolized
- Bacterial Biotransformation [17]: Compound metabolized
- Bacterial Biotransformation [18]: Compound metabolized
- Bacterial Biotransformation [19]: Compound metabolized
- Bacterial Biotransformation [20]: Compound metabolized

Structure (SMILES): CN(CCOc1ccc(CC2SC(=O)NC2=O)cc1)c1ccccn1.O=C(O)/C=C\C(=O)O (stereo not given) [ROSIGLITAZONE MALEATE]
- Bacterial Biotransformation [1]: Compound NOT metabolized
- Bacterial Biotransformation [2]: Compound NOT metabolized
- Bacterial Biotransformation [3]: Compound metabolized
- Bacterial Biotransformation [4]: Compound NOT metabolized
- Bacterial Biotransformation [5]: Compound NOT metabolized
- Bacterial Biotransformation [6]: Compound NOT metabolized
- Bacterial Biotransformation [7]: Compound NOT metabolized
- Bacterial Biotransformation [8]: Compound NOT metabolized
- Bacterial Biotransformation [9]: Compound NOT metabolized
- Bacterial Biotransformation [10]: Compound metabolized
- Bacterial Biotransformation [11]: Compound NOT metabolized
- Bacterial Biotransformation [12]: Compound metabolized
- Bacterial Biotransformation [13]: Compound metabolized
- Bacterial Biotransformation [14]: Compound NOT metabolized
- Bacterial Biotransformation [15]: Compound metabolized
- Bacterial Biotransformation [16]: Compound metabolized
- Bacterial Biotransformation [17]: Compound NOT metabolized
- Bacterial Biotransformation [18]: Compound NOT metabolized
- Bacterial Biotransformation [19]: Compound NOT metabolized
- Bacterial Biotransformation [20]: Compound NOT metabolized
